The values that follow come from PubChem BioAssay (NCI).

Among the test systems are BT-549 breast; PC-3 prostate; SN12C renal; SK-MEL-2 melanoma; COLO 205 colon; HOP-62 NSCLC; 786-0 renal; UACC-62 melanoma; SF-539 CNS; UO-31 renal; LOX IMVI melanoma; MDA-N; HT29 colon; K-562 leukemia; NCI-H522 lung; MOLT-4 leukemia; SNB-75 CNS; MDA-MB-231 breast; DU-145 prostate; HL-60(TB) leukemia.
What all share (assay): growth of human tumour cells (NCI), 48 h

SMILES strings stand for the structures.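 1) Cells in 96-well plates. 2) Compound, 48 h, 5 concentrations. 3) Linear interpolation between surrounding doses. 4) Unreached endpoint = highest concentration. TGI denotes the concentration required for complete inhibition of growth.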

For the molecule `CC(C)C(C/C=C1/CC(CO)(COC(=O)c2ccccc2)OC1=O)C(C)C` (centres undefined), the TGI is 33.2 µM in the experiment on BT-549 breast; 28.1 µM in the experiment on PC-3 prostate; 29 µM in the experiment on SN12C renal; over 100 µM in the experiment with SK-MEL-2 melanoma; 17.4 µM in the experiment on COLO 205 colon; 22.4 µM with HOP-62 NSCLC. Moreover, the TGI came to 23.2 µM with 786-0 renal; 67.1 µM in the experiment with UACC-62 melanoma; 16.1 µM with SF-539 CNS; 31.5 µM with UO-31 renal; 69.6 µM in the experiment with LOX IMVI melanoma; 31.2 µM with MDA-N. In addition, the TGI is 36.4 µM in the experiment with HT29 colon; 48 µM in the experiment on K-562 leukemia; 35 µM with NCI-H522 lung; 47 µM with MOLT-4 leukemia; 20.3 µM with SNB-75 CNS; 32.8 µM with MDA-MB-231 breast.
As for `CC(C)(C)OC/C=C1\C(=O)O[C@H]2C[C@@H](O[Si](C)(C)C(C)(C)C)C[C@@H]12`, the TGI in the experiment with BT-549 breast, in the experiment on PC-3 prostate, in the experiment on SN12C renal, with SK-MEL-2 melanoma, with COLO 205 colon and in the experiment with HOP-62 NSCLC was over 100 µM in each case. The TGI in the experiment with 786-0 renal, with DU-145 prostate, in the experiment on UO-31 renal, in the experiment on LOX IMVI melanoma, in the experiment on MDA-N and with HT29 colon was over 100 µM throughout. Further, the TGI was over 100 µM in the experiment with K-562 leukemia; 90.7 µM in the experiment with NCI-H522 lung; over 100 µM in the experiment on MOLT-4 leukemia; over 100 µM in the experiment with SNB-75 CNS; over 100 µM with MDA-MB-231 breast.
On to `CN(C)CCn1c(=O)c2ccc3c4c(nn3CCN(C)C)c3cc([N+](=O)[O-])ccc3n(c1=O)c24`, for which the TGI worked out at 3.34 µM with BT-549 breast; 0.576 µM with PC-3 prostate; 0.429 µM in the experiment on SN12C renal; 0.31 µM in the experiment with SK-MEL-2 melanoma; 0.297 µM in the experiment with COLO 205 colon; 0.974 µM in the experiment on HOP-62 NSCLC. In addition, the TGI is 0.277 µM in the experiment on 786-0 renal; 1.2 µM in the experiment on DU-145 prostate; 0.952 µM with UACC-62 melanoma; 2.83 µM in the experiment with SF-539 CNS; 0.363 µM in the experiment with UO-31 renal; 1.16 µM in the experiment on LOX IMVI melanoma. Also, the TGI in the experiment on MDA-N is 0.243 µM; in the experiment on HL-60(TB) leukemia, 0.638 µM; with NCI-H522 lung it was 0.2 µM; in the experiment on MDA-MB-231 breast it was 0.491 µM.
For `COC(=O)[C@@H](Cc1ccccc1)N1O[C@]12CCCC[C@@H]2NC(=O)OC(C)(C)C` (some centres undefined), the TGI in the experiment on BT-549 breast is 34.8 µM; in the experiment with PC-3 prostate, 84.2 µM; in the experiment with SN12C renal, over 100 µM; with SK-MEL-2 melanoma, 49 µM; in the experiment on COLO 205 colon, 75.5 µM; in the experiment with HOP-62 NSCLC it was 38.2 µM. The TGI in the experiment with 786-0 renal was 51.3 µM; in the experiment on DU-145 prostate, 79 µM; in the experiment with UACC-62 melanoma, 48.7 µM; in the experiment with SF-539 CNS, 33.3 µM; in the experiment with UO-31 renal it was 27.5 µM; with MDA-N, 39.1 µM. The TGI in the experiment on HT29 colon is 32.2 µM; with K-562 leukemia, over 100 µM; in the experiment on NCI-H522 lung, 30.4 µM; with MOLT-4 leukemia, over 100 µM; in the experiment with SNB-75 CNS, 77.3 µM; with MDA-MB-231 breast, 42.4 µM.
`O=c1[nH]nc(Cn2c3ccc(Br)cc3c3nc4ccccc4nc32)n1C1CCCCC1`: the TGI is over 100 µM in the experiment on BT-549 breast; 59.8 µM with PC-3 prostate; over 100 µM in the experiment on SN12C renal; over 100 µM in the experiment with SK-MEL-2 melanoma; over 100 µM in the experiment on COLO 205 colon; 52.8 µM in the experiment with HOP-62 NSCLC. In addition, the TGI in the experiment with 786-0 renal was over 100 µM; with DU-145 prostate, over 100 µM; with UACC-62 melanoma, 81.1 µM; in the experiment on SF-539 CNS it was 46 µM; in the experiment with UO-31 renal, over 100 µM; in the experiment with LOX IMVI melanoma it was over 100 µM. Moreover, the TGI in the experiment on MDA-N, in the experiment with HT29 colon, with K-562 leukemia, with MOLT-4 leukemia, in the experiment on SNB-75 CNS and in the experiment on MDA-MB-231 breast was over 100 µM throughout.
In the case of `CN(C)S(=O)(=O)n1cnc(CO)c1`, the TGI with BT-549 breast, in the experiment with PC-3 prostate, in the experiment with SN12C renal, in the experiment on SK-MEL-2 melanoma, with COLO 205 colon and with HOP-62 NSCLC was over 100 µM in each case. The TGI with 786-0 renal, in the experiment on SF-539 CNS, in the experiment with UO-31 renal, in the experiment on LOX IMVI melanoma, in the experiment on MDA-N and in the experiment with K-562 leukemia was over 100 µM in each case. The TGI with NCI-H522 lung, in the experiment with MOLT-4 leukemia, in the experiment with SNB-75 CNS and with MDA-MB-231 breast was over 100 µM in each case.
In the case of `COc1ccccc1N=N/C(=N\NC(=O)c1ccc(C)cc1)c1ccc(N(CCC#N)CCC#N)cc1C`, the TGI with BT-549 breast was over 100 µM; in the experiment with PC-3 prostate, over 100 µM; in the experiment on SN12C renal, over 100 µM; in the experiment with SK-MEL-2 melanoma, over 100 µM; in the experiment on COLO 205 colon it was 37.3 µM; in the experiment on HOP-62 NSCLC it was over 100 µM. Further, the TGI in the experiment with 786-0 renal, in the experiment on DU-145 prostate, with SF-539 CNS, with UO-31 renal, in the experiment with LOX IMVI melanoma and in the experiment on MDA-N was over 100 µM throughout. In addition, the TGI in the experiment with HT29 colon, in the experiment on K-562 leukemia, with MOLT-4 leukemia, with SNB-75 CNS and in the experiment on MDA-MB-231 breast was over 100 µM throughout.
As to `Cc1ccc(N=NN(C)C(=O)C(C)N)cc1` (centres undefined), the TGI with BT-549 breast, in the experiment on PC-3 prostate, in the experiment with SN12C renal, in the experiment on SK-MEL-2 melanoma, with COLO 205 colon and in the experiment with HOP-62 NSCLC was over 100 µM throughout. The TGI in the experiment on 786-0 renal, in the experiment with DU-145 prostate, in the experiment with UACC-62 melanoma, with SF-539 CNS, in the experiment with UO-31 renal and in the experiment on LOX IMVI melanoma was over 100 µM in each case. Besides, the TGI in the experiment on MDA-N, in the experiment on HT29 colon, with K-562 leukemia, with HL-60(TB) leukemia, in the experiment on NCI-H522 lung and with MOLT-4 leukemia was over 100 µM each time. Besides, the TGI in the experiment on SNB-75 CNS was over 100 µM.
